Measurements published in ChEMBL document CHEMBL1155344, “Synthesis of some new 1,2,4-triazoles starting from isonicotinic acid hydrazide and evaluation of their antimicrobial activities” (2009).
The source made the active and inactive calls. The rule behind the calls is not given here.

Columns and labels:
Escherichia coli [1] = experiment: Antimicrobial activity against Escherichia coli ATCC 25922 after 18 hrs by well diffusion method; format: functional
[2] = tested on: Yersinia pseudotuberculosis; experiment: Antimicrobial activity against Yersinia pseudotuberculosis ATCC 911after 18 hrs by well diffusion method; format: functional
Pseudomonas aeruginosa [3] = experiment: Antimicrobial activity against Pseudomonas aeruginosa ATCC 27853 after 18 hrs by well diffusion method; format: functional
Enterococcus faecalis [4] = experiment: Antimicrobial activity against Enterococcus faecalis ATCC 29212 after 18 hrs by well diffusion method; format: functional
Staphylococcus aureus [5] = experiment: Antimicrobial activity against Staphylococcus aureus ATCC 25923 after 18 hrs by well diffusion method; format: functional
Bacillus cereus [6] = experiment: Antimicrobial activity against Bacillus cereus 702 Roma after 18 hrs by well diffusion method; format: functional
Candida tropicalis [7] = experiment: Antimicrobial activity against Candida tropicalis ATCC 13803 after 18 hrs by well diffusion method; format: functional
Candida albicans [8] = experiment: Antimicrobial activity against Candida albicans ATCC 60193 after 18 hrs by well diffusion method; format: functional
Escherichia coli [9] = experiment: Antimicrobial activity against Escherichia coli ATCC 25922 at 5 ug after 18 hrs by well diffusion method; format: functional, organism-based
[10] = tested on: Yersinia pseudotuberculosis; experiment: Antimicrobial activity against Yersinia pseudotuberculosis ATCC 911 at 5 ug after 18 hrs by well diffusion method; format: functional, organism-based
Pseudomonas aeruginosa [11] = experiment: Antimicrobial activity against Pseudomonas aeruginosa ATCC 27853 at 5 ug after 18 hrs by well diffusion method; format: functional, organism-based
Enterococcus faecalis [12] = experiment: Antimicrobial activity against Enterococcus faecalis ATCC 29212 at 5 ug after 18 hrs by well diffusion method; format: functional, organism-based
Staphylococcus aureus [13] = experiment: Antimicrobial activity against Staphylococcus aureus ATCC 25923 at 5 ug after 18 hrs by well diffusion method; format: functional, organism-based
Bacillus cereus [14] = experiment: Antimicrobial activity against Bacillus cereus 702 Roma at 5 ug after 18 hrs by well diffusion method; format: functional, organism-based
Candida tropicalis [15] = experiment: Antimicrobial activity against Candida tropicalis ATCC 13803 at 5 ug after 18 hrs by well diffusion method; format: functional; settings: ATCC 13803, 18 h, read-out: IZ
Candida albicans [16] = experiment: Antimicrobial activity against Candida albicans ATCC 60193 at 5 ug after 18 hrs by well diffusion method; format: functional; settings: ATCC 60193, 18 h, read-out: IZ
Escherichia coli [17] = experiment: Antimicrobial activity against Escherichia coli ATCC 25922 at 10 ug after 18 hrs by well diffusion method; format: functional; settings: ATCC 25922, 18 h, read-out: IZ
[18] = tested on: Yersinia pseudotuberculosis; experiment: Antimicrobial activity against Yersinia pseudotuberculosis ATCC 911 at 10 ug after 18 hrs by well diffusion method; format: functional; settings: ATCC 911, 18 h, read-out: IZ
Pseudomonas aeruginosa [19] = experiment: Antimicrobial activity against Pseudomonas aeruginosa ATCC 27853 at 10 ug after 18 hrs by well diffusion method; format: functional; settings: ATCC 27853, 18 h, read-out: IZ
Enterococcus faecalis [20] = experiment: Antimicrobial activity against Enterococcus faecalis ATCC 29212 at 10 ug after 18 hrs by well diffusion method; format: functional; settings: ATCC 29212, 18 h, read-out: IZ
Staphylococcus aureus [21] = experiment: Antimicrobial activity against Staphylococcus aureus ATCC 25923 at 10 ug after 18 hrs by well diffusion method; format: functional; settings: ATCC 25923, 18 h, read-out: IZ
Bacillus cereus [22] = experiment: Antimicrobial activity against Bacillus cereus 702 Roma at 10 ug after 18 hrs by well diffusion method; format: functional; settings: read-out: IZ
Candida tropicalis [23] = experiment: Antimicrobial activity against Candida tropicalis ATCC 13803 at 10 ug after 18 hrs by well diffusion method; format: functional, organism-based
Candida albicans [24] = experiment: Antimicrobial activity against Candida albicans ATCC 60193 at 10 ug after 18 hrs by well diffusion method; format: functional, organism-based

SMILES | inhibition zone (IZ) (Escherichia coli [1]) | inhibition zone (IZ) [2] | inhibition zone (IZ) (Pseudomonas aeruginosa [3]) | inhibition zone (IZ) (Enterococcus faecalis [4]) | inhibition zone (IZ) (Staphylococcus aureus [5]) | inhibition zone (IZ) (Bacillus cereus [6]) | inhibition zone (IZ) (Candida tropicalis [7]) | inhibition zone (IZ) (Candida albicans [8]) | also measured
CN1CCN(Cn2nc(-c3ccncc3)n(N)c2=S)CC1 | 30 mm | 24 mm | 35 mm | 25 mm | 28 mm | 22 mm | inactive | inactive | 
Nn1c(S)nnc1-c1ccncc1 | 34 mm | 30 mm | 42 mm | 24 mm | 34 mm | 20 mm | inactive | inactive | 
CN1CCN(Cn2nc(-c3ccncc3)n(/N=C/c3ccc(F)cc3)c2=S)CC1 | inactive | inactive | inactive | inactive | inactive | inactive | inactive | inactive | 
OC(Cn1cncn1)(Cn1cncn1)c1ccc(F)cc1F [FLUCONAZOLE] |  |  |  |  |  |  |  |  | inhibition zone (IZ) (Escherichia coli [9]): inactive; inhibition zone (IZ) [10]: inactive; inhibition zone (IZ) (Pseudomonas aeruginosa [11]): inactive; inhibition zone (IZ) (Enterococcus faecalis [12]): inactive; inhibition zone (IZ) (Staphylococcus aureus [13]): inactive; inhibition zone (IZ) (Bacillus cereus [14]): inactive; zone of inhibition at 5 µg/disc (Candida tropicalis [15]): 25 mm; zone of inhibition at 5 µg/disc (Candida albicans [16]): 25 mm
CN1CCN(Cn2nc(-c3ccncc3)oc2=S)CC1 | 23 mm | 15 mm | 28 mm | 17 mm | 17 mm | 17 mm | inactive | inactive | 
Nn1c(-c2ccncc2)nn(CNCCN2CCOCC2)c1=S | inactive | inactive | inactive | inactive | inactive | inactive | inactive | inactive | 
Nn1c(-c2ccncc2)nn(CN2CCOCC2)c1=S | 20 mm | 13 mm | inactive | inactive | inactive | inactive | inactive | inactive | 
S=c1[nH]nc(-c2ccncc2)o1 | inactive | inactive | inactive | inactive | 10 mm | inactive | 30 mm | 25 mm | 
S=c1[nH]nc(-c2ccncc2)n1/N=C/c1c[nH]c2ccccc12 | inactive | inactive | inactive | inactive | inactive | inactive | inactive | inactive | 
CCSc1nnc(-c2ccncc2)o1 | 30 mm | 22 mm | 25 mm | 25 mm | 25 mm | 18 mm | 7 mm | 7 mm | 
S=c1oc(-c2ccncc2)nn1CNCCN1CCOCC1 | 13 mm | 13 mm | 13 mm | 15 mm | 14 mm | 14 mm | inactive | inactive | 
CCSc1nnc(-c2ccncc2)n1N | 30 mm |  | 25 mm | 25 mm | 25 mm | 20 mm | 8 mm | 8 mm | 
Fc1ccc(/C=N/n2c(-c3ccncc3)n[nH]c2=S)cc1 | inactive | inactive | inactive | inactive | inactive | 7 mm | 8 mm | 8 mm | 
CC1(C)S[C@@H]2[C@H](NC(=O)[C@H](N)c3ccccc3)C(=O)N2[C@H]1C(=O)O [AMPICILLIN] |  |  |  |  |  |  |  |  | zone of inhibition at 10 µg/disc (Escherichia coli [17]): 10 mm; zone of inhibition at 10 µg/disc [18]: 18 mm; zone of inhibition at 10 µg/disc (Pseudomonas aeruginosa [19]): 18 mm; zone of inhibition at 10 µg/disc (Enterococcus faecalis [20]): 10 mm; zone of inhibition at 10 µg/disc (Staphylococcus aureus [21]): 35 mm; zone of inhibition at 10 µg/disc (Bacillus cereus [22]): 15 mm; inhibition zone (IZ) (Candida tropicalis [23]): inactive; inhibition zone (IZ) (Candida albicans [24]): inactive
